Laboratory results reported in article PMC6273913, “New α-Methylene-γ-Butyrolactone Derivatives as Potential Fungicidal Agents: Design, Synthesis and Antifungal Activities” (Molecules, 2016).
Read-outs that look alike come from different tables or passages of the source.

How the values were obtained:
[1] = system: B. cinerea; test: Spore germination assay, fungicidal activity against B. cinerea; format: cell-based, Botrytis cinerea; settings: Botrytis cinerea, in vitro, n = 3
Procedure: (§1) The fungal pathogens C. lagenarium and B. cinerea was provided by the Agricultural Culture Collection of China (Yangling, Shaanxi, China). C. lagenarium was cultured for 2 weeks at 25 ± 1 °C on potato dextrose agar (PDA) while B. cinerea was cultured at 20 °C on the same medium after being retrieved from the storage tube. Plates were flooded with sterile distilled water, and then conidia were scraped with a glass rod. Mycelial debris was removed by filtration. The spores were harvested and suspended in sterile distilled water containing 0.1% (v/v) Tween 20. The concentration of the spore suspension was adjusted to 1.0 × 10^6 spores/mL with sterilized distilled water following.
(§2) The tested samples (10.0 mg) dissolved in acetone (0.1 mL) were diluted with sterile distilled water to prepare 10.0 mL stock solution, which was further diluted to prepare test solutions in which the final concentration of acetone was <1% (v/v). A series of concentrations of tested samples and one control (1% acetone with sterile distilled water) were separately tested for spore germination of C. lagenarium or B. cinerea. The samples were inoculated with spore suspension of C. lagenarium or B. cinerea containing 1.0 × 10^6 spores/mL. Aliquots of 10 μL of prepared spore suspension were placed on separate glass slides in triplicate. Slides containing the spores were incubated in a moisture chamber at 25 °C for 6~8 h. Each slide was then observed under the microscope for spore germination. Spores were considered to have germinated if the length of the germ tube was at least half the length of the spore. Afterward, spore germination was stopped by applying a drop of lactophenol-cotton blue to the inoculation sites on plates. The numbers of generated spores were counted under a microscope (Olympus BX61, Tokyo, Japan), and the percentage of germinated spores was calculated. Chlorothalonil was used as the positive control.

[2] = system: C. lagenarium; test: Spore germination assay, fungicidal activity against C. lagenarium; format: cell-based, Colletotrichum lagenarium; settings: Colletotrichum orbiculare
Procedure: as §1, §2

[3] = system: HepG2 cell line; test: Cytotoxic activity against human tumor cells line (HepG2); format: cell-based
[4] = Table 1, from IC50 in μM, read-out: pIC50, C. lagenarium (converted)
[5] = Table 6, read-out: IC50 (μM) (against C. lagenarium)
[6] = in vitro, spore germination, n = 3, read-out: IC50, C. lagenarium
[7] = Table 2, fungicidal activity against C. lagenarium used for QSAR, read-out: pIC50 (converted)
[8] = Table 4, experimental, C. lagenarium, read-out: Exp. pIC50 (converted)

| SMILES | IC50 [1] | melting point | IC50 [2, 4] | IC50 [2, 5] | IC50 [2, 6] | IC50 [3] | IC50 [2, 7] | IC50 [2, 8] |
| --- | --- | --- | --- | --- | --- | --- | --- | --- |
| C=C1CC(c2ccc(O)cc2)OC1=O (centres unmarked) [Compound 4, 4-(4-Hydroxyphenyl)-2-methylenebutyrolactone] | 208 µM | 79 to 81 °C | 161 µM | 161 µM | 161 µM | 23.3 µM |  |  |
| C=C1CC(c2ccc(OC(=O)c3cccc(Cl)c3)cc2)OC1=O (centres unmarked) [Compound 4b, 4-[4-(3-Chlorobenzoyloxy)phenyl]-2-methylenebutyrolactone] | 22.1 µM | 168.8 to 169.2 °C | 8.99 µM | 8.99 µM | 8.99 µM | 22.4 µM | 8.99 µM | 8.99 µM |
| C=C1CC(c2ccc(OC(=O)c3cccc(Br)c3)cc2)OC1=O (centres unmarked) [Compound 4e, 4-[4-(3-Bromobenzoyloxy)phenyl]-2-methylenebutyrolactone] | 30.2 µM | 176.5 to 176.8 °C | 8.77 µM | 8.76 µM | 8.76 µM | 21.7 µM | 8.77 µM | 8.77 µM |
| C=C1CC(c2ccc(OC(=O)c3cccc(C#N)c3)cc2)OC1=O (centres unmarked) [Compound 4g, 4-[4-(3-Benzonitrile)phenyl]-2-methylenebutyrolactone] | 60.6 µM |  | 52.8 µM | 52.9 µM | 52.9 µM | 18.3 µM | 52.8 µM | 52.8 µM |
| C=C1CC(c2ccc(OC(=O)CC)cc2)OC1=O (centres unmarked) [Compound 4p, 4-[4-(Propionyloxy)phenyl]-2-methylenebutyrolactone] | 237 µM |  | 207 µM | 207 µM | 207 µM | 19.5 µM | 207 µM | 207 µM |
| C=C1CC(c2ccc(OC(=O)C=Cc3ccc(O)c(OC)c3)cc2)OC1=O (centres unmarked) [Compound 4q] | 21.5 µM |  | 8.93 µM | 8.93 µM | 8.93 µM | 27.3 µM |  | 8.93 µM |
| C=C1CC(c2ccccc2OC(=O)c2ccc(C)cc2)OC1=O (centres unmarked) [Compound 5j, 4-[2-(4-Methylbenzoyloxy)phenyl]-2-methylenebutyrolactone] | 259 µM | 181.2 to 181.6 °C | 207 µM |  | 208 µM |  | 207 µM | 207 µM |
| C=C1CC(c2ccccc2OC(=O)c2ccccc2OC)OC1=O (centres unmarked) [Compound 5k, 4-[2-(2-Methoxylbenzoyloxy)phenyl]-2-methylenebutyrolactone] | 307 µM | 177.8 to 178.6 °C | 292 µM |  | 292 µM |  | 292 µM | 292 µM |
| C=C1CC(c2ccccc2OC(=O)CCC)OC1=O (centres unmarked) [Compound 5m, 4-[2-(Butyryloxy)phenyl]-2-methylenebutyrolactone] | 206 µM |  | 174 µM | 174 µM | 174 µM | 23.8 µM | 174 µM | 174 µM |
| C=C1CC(c2ccccc2OCCC)OC1=O (centres unmarked) [Compound 5p, 4-(2-Propoxylphenyl)-2-methylenebutyrolactone] | 525 µM |  | 499 µM | 499 µM | 499 µM | > 132 µM | 499 µM | 499 µM |
| C=C1CC(c2ccccc2OCC)OC1=O (centres unmarked) [Compound 5r, 4-(2-Ethoxyphenyl)-2-methylenebutyrolactone] | 549 µM |  | 520 µM | 519 µM | 519 µM | 38.4 µM | 520 µM | 520 µM |
| C=C1CC(c2cccc(OC(=O)c3ccc(Cl)cc3)c2)OC1=O (centres unmarked) [Compound 6b, 4-[3-(4-Chlorobenzoyloxy)phenyl]-2-methylenebutyrolactone] | 29.1 µM | 209.8 to 210.5 °C | 9.25 µM |  | 9.24 µM |  | 9.25 µM | 9.25 µM |
| C=C1CC(c2cccc(OC(=O)c3ccccc3Br)c2)OC1=O (centres unmarked) [Compound 6c, 4-[3-(2-Bromobenzoyloxy)phenyl]-2-methylenebutyrolactone] | 27.4 µM | 175.3 to 175.8 °C | 10.3 µM |  | 10.3 µM |  | 10.3 µM | 10.3 µM |
| C=C1CC(c2cccc(OC(=O)c3ccc(Br)cc3)c2)OC1=O (centres unmarked) [Compound 6e, 4-[3-(4-Bromobenzoyloxy)phenyl]-2-methylenebutyrolactone] | 27.2 µM | 168.6 to 169.4 °C | 9.71 µM |  | 9.7 µM |  | 9.71 µM | 9.71 µM |
| C=C1CC(c2cccc(OC(=O)c3cccc(C)c3)c2)OC1=O (centres unmarked) [Compound 6h, 4-[3-(3-Methylbenzoyloxy)phenyl]-2-methylenebutyrolactone] | 148 µM | 177.6 to 178.2 °C | 126 µM |  | 126 µM |  | 126 µM | 126 µM |
| C=C1CC(c2cccc(OC(=O)c3ccc(C)cc3)c2)OC1=O (centres unmarked) [Compound 6i, 4-[3-(4-Methylbenzoyloxy)phenyl]-2-methylenebutyrolactone] | 164 µM | 168.5 to 168.9 °C | 136 µM |  | 137 µM |  | 136 µM | 136 µM |
| C=C1CC(c2cccc(OC(=O)c3ccccc3OC)c2)OC1=O (centres unmarked) [Compound 6j, 4-[3-(2-Methoxylbenzoyloxy)phenyl]-2-methylenebutyrolactone] | 196 µM | 172.3 to 172.8 °C | 162 µM |  | 162 µM |  | 162 µM | 162 µM |
| C=C1CC(c2cccc(OC(=O)c3cccc(OC)c3)c2)OC1=O (centres unmarked) [Compound 6k, 4-[3-(3-Methoxybenzoyloxy)phenyl]-2-methylenebutyrolactone] | 161 µM | 183.7 to 184.2 °C | 136 µM |  | 136 µM |  | 136 µM | 136 µM |
| C=C1CC(c2cccc(OC(=O)C=Cc3ccccc3)c2)OC1=O (centres unmarked) [Compound 6n, 4-(3-Cinnamoyloxyphenyl)-2-methylenebutyrolactone] | 40.3 µM |  | 24.3 µM | 24.2 µM | 24.2 µM | 15.7 µM | 24.3 µM | 24.3 µM |
| C=C1CC(c2cccc(OCCCC)c2)OC1=O (centres unmarked) [Compound 6o, 4-(3-Butoxyphenyl)-2-methylenebutyrolactone] | 280 µM |  | 242 µM | 242 µM | 242 µM | > 108 µM | 242 µM | 242 µM |
